This is an account of results in ChEMBL document CHEMBL5528035, “Design, Synthesis, and Biological Evaluation for First GPX4 and CDK Dual Inhibitors” (J Med Chem, 2024).

The source made the active and inactive calls. The rule behind the calls is not given here.

The subject of data set [1] is MDA-MB-231. Briefly: Induction of apoptosis in human MDA-MB-231 cells assessed as upregulation of Bax expression at 0.5 to 2 uM incubated for 24 hrs by Western blotting analysis. Particulars: dose 0.5-2 µM. Type of data set: functional, cell-based. A general note: In western blotting, separated proteins are transferred to a membrane and probed.
Data set [2] has as its system HCT-116. Briefly: Induction of cell cycle arrest in human HCT-116 cells assessed as downregulation of E2F1 expression at 0.5 to 2 uM incubated for 24 hrs by Western blotting analysis. The data set is classed as functional, cell-based. Particulars: dose 0.5-2 µM.
The test system of data set [3] is MDA-MB-231. Briefly: Induction of ferroptosis in human MDA-MB-231 cells assessed as increase in intracellular lipid peroxide level incubated for 24 hrs by flow cytometric analysis. The data set is classed as functional, cell-based. A general note: A flow cytometer gives signals particle by particle.
The subject of data set [4] is MDA-MB-231. Kind of data set: Induction of ferroptosis in human MDA-MB-231 cells assessed as increase in intracellular lipid peroxide level incubated for 24 hrs by […] staining based confocal laser scanning microscopic analysis. The data set is classed as functional, cell-based.
Data set [5] deals with CDK2/Cyclin A2 (Homo sapiens) (UniProt P24941+P20248). Kind of data set: Inhibition of CDK2/CyclinA2 (unknown origin) at 100 nM preincubated for 15 mins followed by substrate and ATP addition incubated for 10 mins by ADP-glo luminescent assay relative to control. Type of data set: protein-complex assay. The following applies: time 25.0 min. For orientation: ADP-Glo turns the ADP formed in a reaction into a luminescent signal.

Data set [6] deals with MDA-MB-231. Briefly: Antitumor activity against human MDA-MB-231 cells xenografted in BALB/c mouse assessed as decrease in phosphorylated Rb expression at 40 mg/kg,ip administrated for 21 consecutive days by immunohistochemistry. The data set is classed as functional, organism-based.
Data set [7] concerns MDA-MB-231. Kind of data set: Antitumor activity against human MDA-MB-231 cells xenografted in BALB/c mouse assessed as decrease in GPX4 expression at 20 mg/kg,ip administrated for 21 consecutive days by immunohistochemistry. Type of data set: functional, organism-based.
Data set [8] concerns the target CDK6/cyclin D3 (Homo sapiens, UniProt Q00534). Briefly: Inhibition of CDK6/CyclinD3 (unknown origin) preincubated for 15 mins followed by substrate and ATP addition incubated for 10 mins by ADP-glo luminescent assay. Type of data set: protein-complex assay.
Data set [9] deals with HCT-116. Kind of data set: Induction of ferroptosis in human HCT-116 cells assessed as increase in intracellular ferrous ion level at 0.5 to 2 uM incubated for 24 hrs by ferroOrange probe based confocal laser scanning microscopic analysis. Type of data set: functional, cell-based. Particulars: dose 0.5-2 µM.
Data set [10] in a line: Toxicity in BALB/c mouse xenografted with human MDA-MB-231 cells assessed as morphological change in lung at 20 mg/kg,ip administrated for 21 consecutive days by hematoxylin and eosin staining based analysis. The data set is classed as organism-based. Particulars: in vivo.
Data set [11] relates to MDA-MB-231. Briefly: Induction of cell cycle arrest in human MDA-MB-231 cells assessed as accumulation of cells at G1 phase at 0.5 to 2 uM incubated for 24 hrs by RNase/PI staining based flow cytometric analysis. Type of data set: functional. The following applies: dose 0.5-2 µM.
The nature of data set [12]: Half life in Sprague-Dawley rat at 10 mg/kg,iv administration measured upto 24 hrs by LC-MS/MS analysis. The following applies: in vivo. The data set is classed as ADME, organism-based.
A short description of data set [13]: Toxicity in BALB/c mouse xenografted with human MDA-MB-231 cells assessed as morphological change in spleen at 40 mg/kg,ip administrated for 21 consecutive days by hematoxylin and eosin staining based analysis. The data set is classed as organism-based. The following applies: in vivo.
Data set [14] deals with MDA-MB-231. Briefly: Induction of ferroptosis in human MDA-MB-231 cells assessed as increase in intracellular ferrous ion level at 0.5 to 2 uM incubated for 24 hrs by ferroOrange probe based confocal laser scanning microscopic analysis. The data set is classed as functional, cell-based. Particulars: dose 0.5-2 µM.
Data set [15] concerns HCT-116. Kind of data set: Induction of ferroptosis in human HCT-116 cells assessed as increase in intracellular lipid peroxide level incubated for 24 hrs by flow cytometric analysis. Type of data set: functional, cell-based.
The nature of data set [16]: Toxicity in BALB/c mouse xenografted with human MDA-MB-231 cells assessed as morphological change in lung at 40 mg/kg,ip administrated for 21 consecutive days by hematoxylin and eosin staining based analysis. Type of data set: organism-based. The following applies: in vivo.
A short description of data set [17]: Half life in human liver microsomes in presence of NADPH incubated for 5 to 45 mins by LC/MS analysis. The following applies: time 5-45 min. Type of data set: ADME, Microsome.
Data set [18] can be described thus: Toxicity in BALB/c mouse xenografted with human MDA-MB-231 cells assessed as morphological change in liver at 20 mg/kg,ip administrated for 21 consecutive days by hematoxylin and eosin staining based analysis. Particulars: in vivo. The data set is classed as organism-based.
Data set [19] deals with MDA-MB-231. Briefly: Antitumor activity against human MDA-MB-231 cells xenografted in BALB/c mouse assessed as decrease in phosphorylated Rb expression at 20 mg/kg,ip administrated for 21 consecutive days by immunohistochemistry. Type of data set: functional, organism-based.
Data set [20] relates to HCT-116. Briefly: Induction of ferroptosis in human HCT-116 cells assessed as increase in intracellular ferrous ion level at 0.5 to 2 uM incubated for 24 hrs by ferroOrange probe based flow cytometric analysis. The data set is classed as functional, cell-based. The following applies: dose 0.5-2 µM.

Chain of CDK6/cyclin D3 (P30281 whole entry): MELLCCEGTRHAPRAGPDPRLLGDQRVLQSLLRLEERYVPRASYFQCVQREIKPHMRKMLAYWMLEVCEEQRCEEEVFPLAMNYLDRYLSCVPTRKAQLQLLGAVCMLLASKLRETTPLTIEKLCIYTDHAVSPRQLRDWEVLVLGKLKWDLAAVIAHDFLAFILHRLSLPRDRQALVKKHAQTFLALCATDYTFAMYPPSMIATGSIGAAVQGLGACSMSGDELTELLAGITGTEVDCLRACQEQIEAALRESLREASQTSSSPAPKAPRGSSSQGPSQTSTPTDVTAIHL
Chain of CDK6/cyclin D3 (Q00534 whole entry): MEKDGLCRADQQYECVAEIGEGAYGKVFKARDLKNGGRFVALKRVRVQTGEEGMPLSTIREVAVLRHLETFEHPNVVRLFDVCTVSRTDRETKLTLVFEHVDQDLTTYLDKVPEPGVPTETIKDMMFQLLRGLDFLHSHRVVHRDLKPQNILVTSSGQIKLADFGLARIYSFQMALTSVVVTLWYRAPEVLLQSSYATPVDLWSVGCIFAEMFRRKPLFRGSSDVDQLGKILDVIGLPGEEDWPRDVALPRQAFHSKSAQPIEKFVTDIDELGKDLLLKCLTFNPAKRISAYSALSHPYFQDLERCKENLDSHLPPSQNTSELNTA

On to `COc1ccc2c(c1)NC(=O)/C2=C1\Nc2ccccc2\C1=N/OCCCNC(=O)CCn1cc(COc2ccc(N(C(=O)CCl)C(C(=O)NCCc3ccccc3)c3cccs3)cc2Cl)nn1` (stereo not given), for which the outcome in data set [1], in [2], in data set [6], in data set [7], in data set [9] and in [11] was Active. In addition, the result in data set [14], in data set [19] and in data set [20] was Active. Also, the Activity result in data set [3] is “Dose-Dependent Effect”; in data set [4], “Dose-Dependent Effect”; in data set [10], “Non-Toxic”; in data set [13] it was “Non-Toxic”; in [15], “Dose-Dependent Effect”; in data set [16], “Non-Toxic”. The Activity result in [18] is listed as “Non-Toxic”. In data set [5], the inhibition (commonly the share of the control response that was lost under treatment) turned out to be 10.7%. For the same compound, the IC50 (as a rule, the concentration that gives 50% inhibition) in [8] was 68.1 nM. The half-life (usually how long it takes for the measured level to halve) in [12] was 5.4 h; in [17] it was 0.978 h.
